# Assay results from US20080312230A1, “Organic Compounds” (Novartis AG, priority 2005, published 2008).
# Molecular target: T1, CRTh2 receptor (Homo sapiens, UniProt Q9Y5Y4)
# T1 construct: expressed in transfected cells; host or cells: CHO.K1 (Chinese Hamster Ovary)
# T1 sequence (Q9Y5Y4 1-395): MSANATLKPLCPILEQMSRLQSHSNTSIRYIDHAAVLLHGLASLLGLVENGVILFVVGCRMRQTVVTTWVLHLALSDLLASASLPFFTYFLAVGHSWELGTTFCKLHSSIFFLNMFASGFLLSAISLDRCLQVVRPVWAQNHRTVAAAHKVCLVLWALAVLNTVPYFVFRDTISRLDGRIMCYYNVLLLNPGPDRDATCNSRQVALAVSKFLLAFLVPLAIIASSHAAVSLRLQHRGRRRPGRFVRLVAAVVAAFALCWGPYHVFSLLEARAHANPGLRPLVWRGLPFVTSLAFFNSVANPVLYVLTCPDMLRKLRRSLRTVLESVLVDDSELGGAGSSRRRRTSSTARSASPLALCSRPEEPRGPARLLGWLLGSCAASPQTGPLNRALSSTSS
# Experiment: CRTH2 cAMP functional assay in CHO.K1-CRTh2 cells
# Assay type: cell-based
# Settings: not given
# Protocol: The assay plate is incubated at room temperature on a shaker for 15 minutes.
# A mix of agonist (10 nM Prostaglandin D2) and 5 μM forskolin is prepared in assay stimulation buffer and added to the assay plate (5 μL/well).
# In addition, a cAMP standard is serially diluted in assay stimulation buffer and added to separate empty wells on the assay plate (20 μL/well).
# The assay plate is incubated at room temperature on a shaker for 60 minutes.
# The resulting lysis mix is added to all wells of the assay plate (40 μL/well).
# The assay plate is sealed with Topseal-S™ and incubated in the dark at room temperature on a shaker for 45 minutes. The plate is then counted using a Packard Fusion™ instrument.
# The resulting counts per minute are converted to nM cAMP by using the prepared cAMP standard curve.
row,Compound,IC50
1,"Cc1c(CC(=O)O)c2cccnc2n1C(C)c1ccc(Cl)cc1 (stereo not drawn) [Example 84, {1-[1-(4-Chloro-phenyl)-ethyl]-2-methyl-1H-pyrrolo[2,3-b]pyridin-3-yl}-acetic acid]",84 nM
2,Cc1c(CC(=O)O)c2cccnc2n1S(=O)(=O)c1ccc([N+](=O)[O-])cc1 [Example 3],276 nM

# Molecular target: T1, CRTh2 receptor
# Experiment: Filtration binding assay: [3H]-PGD2 competition on CHO.K1-CRTh2 membranes
# Settings: competition with 2.5 nM [3H]-PGD2, CHO.K1-CRTh2 membranes, Cheng-Prussoff; read-out: Ki values in the SPA binding assay
# Protocol: Filtration Binding Assay Protocol
# The binding of CRTh2 antagonists is determined using membranes prepared from human CRTh2-expressing Chinese Hamster Ovary cells (CHO.K1-CRTh2). To produce cell membranes CHO.K1-CRTh2 cells cultured in roller bottles are harvested using cell dissociation buffer (Invitrogen). The cells are pelleted by centrifugation (167 g, 5 min). The cell pellet is incubated in hypotonic buffer (15 mM Tris-OH, 2 mM MgCl2, 0.3 mM EDTA, 1 mM EGTA, 1× Complete™ tablet) at 4° C. for 30 min. At 4° C. cells are homogenized using a Polytron® (IKA Ultra Turrax T25) for 5 bursts of 1 second. The homogenate is centrifuged (Beckman Optima TM TL Ultracentrifuge, 48000 g, 30 min at 4° C.). The supernatant is discarded and the membrane pellet resuspended in homogenisation buffer (75 mM Tris-OH, 12.5 mM MgCl2, 0.3 mM EDTA, 1 mM EGTA, 250 mM Sucrose, 1× Complete™ tablet. Membrane preparations are aliquoted and stored at […]. The protein content is estimated using Bradford Protein Assay Dye (Bio Rad).
# The binding of [^3H]-PGD2 (157 Ci/mmol) to CHO.K1-CRTh2 membranes is determined in the absence (total binding) and presence (non-specific binding) of unlabelled PGD2 (1 μM). Subtraction of the cpm (counts per minute) of [^3H]-PGD2 binding in presence of excess unlabelled PGD2 from that observed in the absence of excess unlabelled PGD2 is defined as specific binding. Active CRTh2 antagonists are able to compete with [^3H]-PGD2 for binding to the CRTh2 receptor and are identified in a decrease in the number of cpm bound.
# The assay is performed in Greiner U-bottomed 96 well-plates, in a final volume of 100 μl per well. CHO.K1-CRTh2 membranes were diluted in assay buffer (10 mM HEPES-KOH (pH 7.4), 1 mM EDTA and 10 mM MnCl2) and 10 μg are added to each well. [^3H]-PGD2 is diluted in assay buffer and added to each well at a final concentration of 2.5 nM. To determine non-specific binding, [^3H]-PGD2 binding to the CRTh2 receptor is competed with using unlabelled PGD2 at a final well concentration of 1 μM. The experiment is done in triplicate, with reagents added to the wells as follows:
# 25 μL assay buffer for total binding or
# 25 μL PGD2 to determine non-specific binding
# 25 μL test compound in DMSO/assay buffer
# The plates are incubated at room temperature on a shaker for 1 hour, and then harvested (Tomtec Harvester 9600) onto GF/C filter plates using wash buffer (10 mM HEPES-KOH, pH 7.4). The plate is dried for 2 hours, prior to addition of Micro-Scint 20™ (50 μL) and sealing with TopSeal-S™. Plates are then counted using a Packard Top Count instrument, Plates are then read on the Packard Topcount with the 3H Scintillation program (1 min per well).
# Ki (dissocation constant for the inhibition) values for the CRTh2 antagonists are reported. Ki values are determined using Sigma Plot™ software, using the Cheng-Prussoff equation.
# Where S is the Concentration of Radioligand and Kd is the Dissociation Constant.
row,Compound,Ki
1,"Cc1c(CC(=O)O)c2cccnc2n1Cc1ccc(S(C)(=O)=O)c(C(F)(F)F)c1 [Example 92, [1-(4-Methanesulfonyl-3-trifluoromethyl-benzyl)-2-methyl-1H-pyrrolo[2,3-b]pyridin-3-yl]-acetic acid]",22 nM
2,"CCS(=O)(=O)c1ccc(Cn2c(C)c(CC(=O)O)c3cccnc32)c(C(F)(F)F)c1 [Example 93, [1-(4-Ethanesulfonyl-2-trifluoromethyl-benzyl)-2-methyl-1H-pyrrolo[2,3-b]pyridin-3-yl]-acetic acid]",8 nM
3,"Cc1c(CC(=O)O)c2cccnc2n1Cc1ccc([N+](=O)[O-])cc1 [Example 122, [2-Methyl-1-(4-nitro-benzyl)-1H-pyrrolo[2,3-b]pyridin-3-yl]-acetic acid]",147 nM
4,"Cc1c(CC(=O)O)c2cccnc2n1C(C)c1ccc(S(C)(=O)=O)cc1 (stereo not drawn) [Example 117, {1-[1-(4-Methanesulfonyl-phenyl)-ethyl]-2-methyl-1H-pyrrolo[2,3-b]pyridin-3-yl}-acetic acid]",25 nM
5,"Cc1c(CC(=O)O)c2cccnc2n1C(C)c1ccc(Cl)cc1 (stereo not drawn) [Example 84, {1-[1-(4-Chloro-phenyl)-ethyl]-2-methyl-1H-pyrrolo[2,3-b]pyridin-3-yl}-acetic acid]",100 nM
6,"Cc1c(CC(=O)O)c2cccnc2n1Cc1ccc(C(F)(F)F)cc1C(F)(F)F [Example 119, [1-(2,4-Bis-trifluoromethyl-benzyl)-2-methyl-1H-pyrrolo[2,3-b]pyridin-3-yl]-acetic acid]",29 nM
7,"Cc1c(CC(=O)O)c2cccnc2n1Cc1ccc(S(=O)(=O)C(C)C)cc1 [Example 105, {2-Methyl-1-[4-(propane-2-sulfonyl)-benzyl]-1H-pyrrolo[2,3-b]pyridin-3-yl}-acetic acid]",98 nM
8,"Cc1c(CC(=O)O)c2cccnc2n1C(C)c1ccc(C(F)(F)F)cc1 (stereo not drawn) [Example 115, {2-Methyl-1-[1-(4-trifluoromethyl-phenyl)-ethyl]-1H-pyrrolo[2,3-b]pyridin-3-yl}-acetic acid]",45 nM
9,Cc1c(CC(=O)O)c2cccnc2n1Cc1ccc(S(C)(=O)=O)cc1 [Example 96],29 nM
10,"CCS(=O)(=O)c1ccc(Cn2c(C)c(CC(=O)O)c3cccnc32)c(Cl)c1 [Example 94, [1-(2-Chloro-4-ethanesulfonyl-benzyl)-2-methyl-1H-pyrrolo[2,3-b]pyridin-3-yl]-acetic acid]",7 nM
11,"Cc1c(CC(=O)O)c2cccnc2n1Cc1ccc(S(C)(=O)=O)c(Cl)c1 [Example 125, [1-(3-Chloro-4-methanesulfonyl-benzyl)-2-methyl-1H-pyrrolo[2,3-b]pyridin-3-yl]-acetic acid]",27 nM
12,"Cc1c(CC(=O)O)c2cccnc2n1C(C)c1ccc(S(C)(=O)=O)cc1 (single isomer, unassigned) [Example 97, {1-[1-(4-Methanesulfonyl-phenyl)-ethyl]-2-methyl-1H-pyrrolo[2,3-b]pyridin-3-yl}-acetic acid]",11 nM
13,"Cc1c(CC(=O)O)c2ccc(Cl)nc2n1Cc1ccc(S(C)(=O)=O)cc1C(F)(F)F [Example 100, [6-Chloro-1-(4-methanesulfonyl-2-trifluoromethyl-benzyl)-2-methyl-1H-pyrrolo[2,3-b]pyridin-3-yl]-acetic acid]",5 nM
14,"Cc1c(CC(=O)O)c2ccc(Cl)nc2n1Cc1ccc(S(C)(=O)=O)cc1 [Example 99, [6-Chloro-1-(4-methanesulfonyl-benzyl)-2-methyl-1H-pyrrolo[2,3-b]pyridin-3-yl]-acetic acid]",12 nM

# Continued, values first:
row,Ki,Compound
1,35 nM,"Cc1c(CC(=O)O)c2cccnc2n1S(=O)(=O)c1ccc(Cl)c(C#N)c1 [Example 103, [1-(4-Chloro-3-cyano-benzenesulfonyl)-2-methyl-1H-pyrrolo[2,3-b]pyridin-3-yl]-acetic acid]"
2,43 nM,"COc1cc(S(=O)(=O)n2c(C)c(CC(=O)O)c3cccnc32)ccc1C#N [Example 129, [1-(4-Cyano-3-methoxy-benzenesulfonyl)-2-methyl-1H-pyrrolo[2,3-b]pyridin-3-yl]-acetic acid]"
3,43 nM,"CCOc1cc(S(=O)(=O)n2c(C)c(CC(=O)O)c3cccnc32)ccc1C#N [Example 127, [1-(4-Cyano-3-ethoxy-benzenesulfonyl)-2-methyl-1H-pyrrolo[2,3-b]pyridin-3-yl]-acetic acid]"
4,50 nM,"CCCOc1cc(S(=O)(=O)n2c(C)c(CC(=O)O)c3cccnc32)ccc1C#N [Example 130, [1-(4-Cyano-3-propoxy-benzenesulfonyl)-2-methyl-1H-pyrrolo[2,3-b]pyridin-3-yl]-acetic acid]"
5,31 nM,"Cc1cc(S(C)(=O)=O)ccc1Cn1c(C)c(CC(=O)O)c2cccnc21 [Example 112, [1-(4-Methanesulfonyl-2-methyl-benzyl)-2-methyl-1H-pyrrolo[2,3-b]pyridin-3-yl]-acetic acid]"
6,56 nM,"COc1cc(S(=O)(=O)n2c(C)c(CC(=O)O)c3cccnc32)ccc1F [Example 102, [1-(4-Fluoro-3-methoxy-benzenesulfonyl)-2-methyl-1H-pyrrolo[2,3-b]pyridin-3-yl]-acetic acid]"
7,64 nM,"COc1cc(S(=O)(=O)n2c(C)c(CC(=O)O)c3cccnc32)ccc1Cl [Example 148, [1-(4-Chloro-3-methoxy-benzenesulfonyl)-2-methyl-1H-pyrrolo[2,3-b]pyridin-3-yl]-acetic acid]"
8,3 nM,"Cc1c(CC(=O)O)c2cccnc2n1Cc1ccc(S(C)(=O)=O)cc1Cl [Example 90, [1-(2-Chloro-4-methanesulfonyl-benzyl)-2-methyl-1H-pyrrolo[2,3-b]pyridin-3-yl]-acetic acid]"
